A value given as a limit tells only on which side of the number the result lay.

These results are taken from article PMC7140498, “Predicting liver cytosol stability of small molecules” (Journal of Cheminformatics, 2020).

A short description of this data set: Metabolic stability assay (substrate depletion) in human liver cytosol fractions. The conditions noted are these: for half-life at 1 μM: both, human, liver cytosol fractions.
Setting [1] is: external validation, sheet Human, left compound.
Where [2] appears, read: pH 7.4, t1/2 [min] (Right), external validation, sheet Human, right compound.
The mark [3] stands for this setting: pH 7.4, t1/2 [min] (Left), external validation, sheet Human, left compound.
The mark [4] stands for this setting: pH 7.4, t1/2 [min] (left), in-house library pair, human transforms, left compound.

Experimental: Our assay (384-well format) consisted of two parts; a robotic system for incubation and sample clean up and an integrated LC/MS method to calculate the percent remaining of parent compound. Briefly, each reaction mixture (110 μL) consisted of a test compound (1 μM) and either human or mouse cytosol fractions (2 mg/mL) in phosphate buffer (100 mM) at pH 7.4. Samples were incubated in 384-well plates at 37 °C for 0, 5, 10, 15, 30 and 60 min. Sample analysis and t1/2 calculations were performed using a previously described method [15]. […] A set of control compounds for low and high cytosolic stability were routinely run in each plate.

As to `O=C(c1cccs1)N1CCC(Oc2cccc(F)c2)C1` (centres unmarked) [O=C(c1cccs1)N1CCC(Oc2cccc(F)c2)C1], the “t1/2 [min] (Left)” value under setting [1] was found to be 17.4 min.
As to `Cc1cc(OC2CN(Cc3ccc(C#N)cc3)C2)ccc1F` [Cc1cc(OC2CN(Cc3ccc(C#N)cc3)C2)ccc1F], under setting [1], the “t1/2 [min] (Left)” value amounted to 43.8 min.
In the case of `CNC(=O)[C@@H]1CN(C(=O)c2cccc(OC)c2)C[C@H]1COC`, under setting [2], the half-life at 1 μM was greater than 2 h.
On the same count and under the same terms, for `COc1ccc(CN2CC(Oc3ccc(OC)cc3)C2)cc1` [COc1ccc(CN2CC(Oc3ccc(OC)cc3)C2)cc1] the value was greater than 2 h.
In the case of `O=C(N1CCN(S(=O)(=O)c2ccccc2)CC1)N1CC2CC(C1)[C@H]1CCCC(=O)N1C2` (some centres unmarked), under setting [2], the half-life at 1 μM is greater than 2 h.
With `Cn1cnc2ccc(Nc3cccc(F)c3)nc2c1=O` [Cn1cnc2ccc(Nc3cccc(F)c3)nc2c1=O], under setting [1], the “t1/2 [min] (Left)” value turned out to be 115.2 min.
As to `COc1ccc(CN2CCC3(COc4ccccc4C(=O)N3)C2)cc1` (centres unmarked) [COc1ccc(CN2CCC3(COc4ccccc4C(=O)N3)C2)cc1], under setting [2], the half-life at 1 μM was 0.578 h.
`COC1CCC12CCN(C(=O)c1ccc(C#N)cc1)CC2` (centres unmarked) [COC1CCC12CCN(C(=O)c1ccc(C#N)cc1)CC2]: the “t1/2 [min] (Left)” value under setting [1] was found to be 79.2 min.
`Cc1cc2cc(-c3c(C)noc3C)nc(Nc3ccccc3)c2o1` [Cc1cc2cc(-c3c(C)noc3C)nc(Nc3ccccc3)c2o1] displayed a half-life at 1 μM under setting [2] of 0.593 h.
On the same count and under the same terms, for `CCOc1cc(=O)n2c(c1C(=O)Nc1ccc(S(N)(=O)=O)cc1)CCCC2` the value was greater than 2 h; for `CN(CC1CCOC1)C(=O)Nc1ccccc1` (centres unmarked) [CN(CC1CCOC1)C(=O)Nc1ccccc1], greater than 2 h.
Consider `N#Cc1cccc(CN2CCOC[C@H]2c2nc(-c3ccc(F)cc3)c[nH]2)c1`, for which, under setting [1], the “t1/2 [min] (Left)” value is 94.7 min.
Regarding `COc1cncc(Nc2ncc(-c3cccc(F)c3)c3c2OCC3)c1` [COc1cncc(Nc2ncc(-c3cccc(F)c3)c3c2OCC3)c1], the “t1/2 [min] (Left)” value under setting [1] turned out to be 80.3 min.
Molecule `COc1ccc(CN2CCC(N3CCNC3=O)CC2)cc1` [COc1ccc(CN2CCC(N3CCNC3=O)CC2)cc1] showed a half-life at 1 μM under setting [2] greater than 2 h.
On the same count and under the same terms, for `COc1ccc(CN2CCC(N3Cc4cccn4C3=O)CC2)cc1` [COc1ccc(CN2CCC(N3Cc4cccn4C3=O)CC2)cc1] the value was greater than 2 h.
As to `Fc1cccc(-c2noc(-c3nc(-c4ccncc4)no3)n2)c1` [Fc1cccc(-c2noc(-c3nc(-c4ccncc4)no3)n2)c1], under setting [1], the “t1/2 [min] (Left)” value came out at 26.4 min.
Regarding `CN1c2cc(C(=O)Nc3ccc(C#N)cc3)ccc2C(=O)N2CCCCC21` (centres unmarked), under setting [3], the half-life at 1 μM is greater than 2 h.
Consider `Cc1ccc(-c2noc([C@@H]3Cc4[nH]cnc4CN3Cc3cccc(C#N)c3)n2)cc1`, for which the “t1/2 [min] (Left)” value under setting [1] is recorded as 63.4 min.
Same read-out and setting: for `O=C(c1ccoc1)N1CCC(Oc2cccc(F)c2)C1` (centres unmarked) [O=C(c1ccoc1)N1CCC(Oc2cccc(F)c2)C1] the value was 70.5 min.
Turning to `COc1cccc(CN2CC[C@H](c3nnc(-c4ccco4)o3)C2)c1`, under setting [2], the half-life at 1 μM was determined as 1.97 h.
As to `O=c1c2nc(Nc3cccc(F)c3)ccc2ncn1-c1cccnc1` [O=c1c2nc(Nc3cccc(F)c3)ccc2ncn1-c1cccnc1], the “t1/2 [min] (Left)” value under setting [1] is listed as 96.4 min.
With `COc1ccc(CN2CC[C@@](C)(O)[C@H](N3CCCC3)C2)cc1`, the half-life at 1 μM under setting [2] is greater than 2 h.
`CN1CCC(OC2CCN(C(=O)c3ccccc3)CC2)CC1` [CN1CCC(OC2CCN(C(=O)c3ccccc3)CC2)CC1] showed a half-life at 1 μM under setting [2] greater than 2 h.
Consider `O=c1c2nc(Nc3cccc(F)c3)ccc2ncn1-c1ccccc1` [O=c1c2nc(Nc3cccc(F)c3)ccc2ncn1-c1ccccc1], for which the “t1/2 [min] (Left)” value under setting [1] was determined as 93.9 min.
Molecule `COc1cccc(CN2CC[C@H](c3nc4ccccc4[nH]3)C2)c1` registered a half-life at 1 μM under setting [2] greater than 2 h.
On to `COc1cccc(-c2c(C(=O)Nc3ccc(C)cc3)nc3sccn23)c1`, for which the half-life at 1 μM under setting [2] turned out to be 1.55 h.
`COc1cccc(-c2c(C(=O)NC3CC3)nc3sccn23)c1` [COc1cccc(-c2c(C(=O)NC3CC3)nc3sccn23)c1] showed a half-life at 1 μM under setting [2] greater than 2 h.
For `CC(C)CN1C(=O)c2cccn2CC1C(=O)N1CCN(C)CC1` (centres unmarked) [CC(C)CN1C(=O)c2cccn2CC1C(=O)N1CCN(C)CC1], under setting [2], the half-life at 1 μM worked out at 1.79 h.
As for `Cc1noc(C)c1-c1cc(-c2cccc(F)c2)cn2cncc12` [Cc1noc(C)c1-c1cc(-c2cccc(F)c2)cn2cncc12], under setting [1], the “t1/2 [min] (Left)” value is 90 min.
`CC1(c2ccccc2)N(Cc2ccccc2)C(=O)OC12CCN(Cc1ccc(C(=O)O)cc1)CC2` (centres unmarked): the half-life at 1 μM under setting [2] was greater than 2 h.
The same measure, in the same setting: for `COc1cccc(-c2cn3c(n2)N(C(=O)c2cccs2)CCC3)c1` the value was greater than 2 h.
Consider `Fc1cccc(Nc2ncc(-c3cccnc3)c3c2OCC3)c1` [Fc1cccc(Nc2ncc(-c3cccnc3)c3c2OCC3)c1], for which the “t1/2 [min] (Left)” value under setting [1] stood at 76.6 min.
Turning to `CC(=O)N1CCC(Cc2ccc(C(=O)NC3CC3)cc2)CC1` [CC(=O)N1CCC(Cc2ccc(C(=O)NC3CC3)cc2)CC1], the half-life at 1 μM under setting [3] is 1.33 h and the half-life at 1 μM under setting [4] amounted to 1.33 h.
With `CC(C)(C)c1coc([C@@H]2COCCN2Cc2cccc(C#N)c2)n1`, the half-life at 1 μM is, setting by setting: under setting [3], 0.943 h; under setting [4], 0.943 h.
With `O=C(Nc1cnc(-c2ccccc2)nc1)c1cccc(F)c1` [O=C(Nc1cnc(-c2ccccc2)nc1)c1cccc(F)c1], the “t1/2 [min] (Left)” value under setting [1] amounted to 52 min.
With `CN(Cc1ccccc1)C1CCOc2ccccc21` (centres unmarked) [CN(Cc1ccccc1)C1CCOc2ccccc21], the half-life at 1 μM under setting [2] turned out to be 0.127 h.
Under setting [2], `Cc1noc(-c2cn(C3CCN(C(=O)c4ccccc4)C3)nn2)n1` (centres unmarked) showed a half-life at 1 μM greater than 2 h.
Under setting [2], `COc1ccc(CN2CC(N3CCc4ccccc43)C2)cc1` [COc1ccc(CN2CC(N3CCc4ccccc43)C2)cc1] gave a half-life at 1 μM of 1.37 h.
Regarding `N#Cc1ccc(C(=O)N2CCCOCCNC(=O)CC2)cc1` [N#Cc1ccc(C(=O)N2CCCOCCNC(=O)CC2)cc1], the half-life at 1 μM reads like this: under setting [3], greater than 2 h; under setting [4], greater than 2 h.
On to `N#Cc1cccc(CN2CC(COc3ccccc3)C3(C2)CN(c2ccccc2)C3)c1` (centres unmarked), for which the half-life at 1 μM was 0.693 h under setting [3] and 0.693 h under setting [4].
Under setting [2], `COc1ccc(CN2CC(Oc3ccc(F)c(C)c3)C2)cc1` [COc1ccc(CN2CC(Oc3ccc(F)c(C)c3)C2)cc1] displayed a half-life at 1 μM of 0.36 h.
For `N#Cc1ccccc1CN1CCC2(CC1)CC(O)CCO2` (centres unmarked) [N#Cc1ccccc1CN1CCC2(CC1)CC(O)CCO2], the “t1/2 [min] (Left)” value under setting [1] was determined as 80.3 min.
`O=C(O)c1ccc(CN2CCOC[C@H]2c2nc(-c3ccc(F)cc3)c[nH]2)cc1` displayed a half-life at 1 μM under setting [2] greater than 2 h.
In the case of `Cc1ccccc1-c1n[nH]c2ncc(-c3cccc(F)c3)nc12` [Cc1ccccc1-c1n[nH]c2ncc(-c3cccc(F)c3)nc12], the “t1/2 [min] (Left)” value under setting [1] came out at 49 min.
The same measure, in the same setting: for `N#Cc1cccc(CN2CCOC[C@H](O)C2)c1` [N#Cc1cccc(CN2CCOC[C@H](O)C2)c1] the value was 51.1 min; for `N#Cc1cccc(CN2C[C@@H](CO)[C@H](c3ccccn3)C2)c1`, 57.4 min.
`COc1cccc(-c2cn3c(n2)N(C(=O)c2ccoc2)CCC3)c1`: under setting [2], the half-life at 1 μM stood at 1.86 h.
Still for that read-out and setting: for `COc1ccc(CN2CCC3(CC2)CC(=O)c2ccccc2O3)cc1` [COc1ccc(CN2CCC3(CC2)CC(=O)c2ccccc2O3)cc1] the value was greater than 2 h; for `CCN1CCN(C(=O)c2nc3sccn3c2-c2cccc(OC)c2)CC1`, greater than 2 h; for `COc1ccc(CN2CC(Oc3ccc(F)c(F)c3)C2)cc1` [COc1ccc(CN2CC(Oc3ccc(F)c(F)c3)C2)cc1], 0.5 h.
In the case of `O=C(c1cccs1)N1CCC(Oc2ccccc2)C1` (centres unmarked) [O=C(c1cccs1)N1CCC(Oc2ccccc2)C1], the half-life at 1 μM under setting [2] came to 0.638 h.
As to `N#Cc1ccc(CN2C[C@@H](CO)[C@H](c3ccncc3)C2)cc1`, under setting [1], the “t1/2 [min] (Left)” value was determined as 107.1 min.
Under setting [2], `COCCOC1CCN(C(=O)Nc2ccccc2)CC1` [COCCOC1CCN(C(=O)Nc2ccccc2)CC1] had a half-life at 1 μM greater than 2 h.
Under setting [2], `Cc1nn2c(c1-c1ccccc1Oc1ccccc1)N(Cc1ccc(C(=O)O)cc1)CCC2` came in with a half-life at 1 μM greater than 2 h.
As to `Fc1cccc(-c2cnc(Nc3cncnc3)c3c2CCO3)c1` [Fc1cccc(-c2cnc(Nc3cncnc3)c3c2CCO3)c1], the “t1/2 [min] (Left)” value under setting [1] was found to be 9.6 min.
With `COc1ccc(CN2CCC(N3CCOC3=O)CC2)cc1` [COc1ccc(CN2CCC(N3CCOC3=O)CC2)cc1], the half-life at 1 μM under setting [2] is greater than 2 h.
In turn, `COc1ccc(C(=O)N2CCC3(CCC3OC)CC2)cc1` (centres unmarked) [COc1ccc(C(=O)N2CCC3(CCC3OC)CC2)cc1] registered a half-life at 1 μM under setting [2] of 1.17 h.
Under setting [2], `COCCNC(=O)c1nc2sccn2c1-c1cccc(OC)c1` [COCCNC(=O)c1nc2sccn2c1-c1cccc(OC)c1] showed a half-life at 1 μM greater than 2 h.
Take `Fc1cccc(-c2c[nH]c([C@@H]3COCCN3Cc3c[nH]cn3)n2)c1`: under setting [1], the “t1/2 [min] (Left)” value was determined as 59.3 min.
Regarding `N#Cc1ccc(CN2CCC3(COc4ccccc4C(=O)N3)C2)cc1` (centres unmarked), the “t1/2 [min] (Left)” value under setting [1] is 38.4 min.
On to `COc1ccccc1CN1CCC2(CC1)CC(O)CCO2` (centres unmarked) [COc1ccccc1CN1CCC2(CC1)CC(O)CCO2], for which the half-life at 1 μM under setting [2] was greater than 2 h.
For the molecule `CCOCCOC1CCN(C(=O)Nc2ccccc2)CC1` [CCOCCOC1CCN(C(=O)Nc2ccccc2)CC1], the half-life at 1 μM under setting [2] is greater than 2 h.
For `N#Cc1cccc(-c2c(C(=O)NC3CC3)nc3sccn23)c1` [N#Cc1cccc(-c2c(C(=O)NC3CC3)nc3sccn23)c1], the “t1/2 [min] (Left)” value under setting [1] turned out to be 95.2 min.
As to `O=C(c1ccsc1)N1CCC(Oc2cccc(F)c2)C1` (centres unmarked) [O=C(c1ccsc1)N1CCC(Oc2cccc(F)c2)C1], the half-life at 1 μM under setting [3] is 1.38 h and the half-life at 1 μM under setting [4] was 1.38 h.
Take `Cc1cc2cc(-c3c(C)noc3C)nc(Nc3cccc(F)c3)c2o1`: the “t1/2 [min] (Left)” value under setting [1] turned out to be 8.2 min.
The molecule `COc1cccc(-c2c(C(=O)N3CCCCC3)nc3sccn23)c1` [COc1cccc(-c2c(C(=O)N3CCCCC3)nc3sccn23)c1] returned a half-life at 1 μM under setting [2] of 1.9 h.
With `COc1ccc(CN2CC(Oc3ccc(F)cc3C)C2)cc1` [COc1ccc(CN2CC(Oc3ccc(F)cc3C)C2)cc1], under setting [2], the half-life at 1 μM is 0.35 h.
For the molecule `Cc1cc(F)ccc1OC1CN(Cc2ccc(C#N)cc2)C1` [Cc1cc(F)ccc1OC1CN(Cc2ccc(C#N)cc2)C1], the “t1/2 [min] (Left)” value under setting [1] is 35.4 min.
Regarding `CCOc1cc(=O)n2c(c1C(=O)Nc1ccc(C#N)cc1)CCCC2`, the “t1/2 [min] (Left)” value under setting [1] is listed as 101.4 min.

In general, half-life refers to the time needed for the level to fall by half in the phase considered. A high value points to slow decline.
